The values below come from US20100144779A1, “Marine Alkalod Makaluvamines and Derivatives Thereof” (THE UAB RESEARCH FOUNDATION, priority 2007, published 2010).

Like-named read-outs stand apart in the source and are kept apart here.

Format in all cases: cell-based, human
One assay concerns HCT-116. Description: XTT cytotoxicity assay. The settings on record: average ± standard deviation of 2-4 independent assays, read-out: Inhibition of Cancer Cell Proliferation (IC50) HCT-116. Here is the method: (§1) In initial experiments, compounds 4a-g and 7c-g were evaluated for their cytotoxicity against human breast cancer cell lines MCF-7 and MDA-MB-468 and human colon cancer cell line HCT-116. The makaluvamine compounds provided in Table 2 were also evaluated for their cytotoxicity against human breast cancer cell lines MCF-7. Compound nos. 8 and 27-33 were not evaluated in this experiment. Cells were obtained from ATCC (Manassas, Va.). For each derivative the IC50 value was determined using data generated from 2-4 independent tetrazolium-based (XTT) cytotoxicity assays (R & D Systems Inc., Minneapolis, Minn.) according to the manufacturer's instructions. […] MCF-7, MDA-MD-468 and HCT-116 cells were grown at 37 degrees C. in a humidified atmosphere with complete growth media supplemented with fetal bovine serum. Growth media was changed 2-3 times per week as required.

The subject of a further assay is MDA-MB-468. As to the kind of experiment: XTT cytotoxicity assay. The settings on record: average ± standard deviation of 2-4 independent assays, read-out: Inhibition of Cancer Cell Proliferation (IC50) MDA-MB-468. The procedure:
as §1

For another assay, the system named is MCF-7. Description: XTT cytotoxicity assay. The settings on record: XTT; average ± standard deviation of 2-4 independent assays; read-out: Inhibition of Cancer Cell Proliferation (IC50) MCF-7. The procedure:
as §1

Another assay concerns NCI-H552. As to the kind of experiment: NCI60 cell line screen (SRB). The settings on record: NCI-H552, Non-Small Cell Lung Cancer, 48 h. A digest of the protocol: (§2)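 Drug, diluted from DMSO stock in medium with gentamicin, was tested at five concentrations for 48 h. Readout was SRB-stained cell protein at 515 nm.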
The subject of a further assay is HOP-92. As to the kind of experiment: NCI60 cell line screen (SRB). The settings on record: HOP-92, Non-Small Cell Lung Cancer, 48 h. A digest of the protocol:
as §2

The subject of the next assay is EKVX. Description: NCI60 cell line screen (SRB). The settings on record: Non-Small Cell Lung Cancer, 48 h. The method in brief:
as §2

Another assay deals with UACC-257. As to the kind of experiment: NCI60 cell line screen (SRB). The settings on record: UACC-257, Melanoma, 48 h. A digest of the protocol:
as §2

The subject of a further assay is KM12. As to the kind of experiment: NCI60 cell line screen (SRB). The settings on record: KM12, Colon Cancer, 48 h. The method in brief: as §2
The subject of a further assay is PC-3. As to the kind of experiment: NCI60 cell line screen (SRB). The settings on record: PC-3, Prostate Cancer, 48 h. A digest of the protocol:
as §2

For a further assay, the system named is K-562. As to the kind of experiment: NCI60 cell line screen (SRB). The settings on record: K-562, Leukemia, 48 h. The method in brief: as §2
In a further assay the test system is U87MG. As to the kind of experiment: MTT growth inhibition assay. The settings on record: cancer cell, 72 hr, read-out: Growth inhibitory activity (IC50).
In another assay the test system is A549. Description: Cell cycle progression (propidium iodide, flow cytometry). The settings on record: 48 hr; for G1 / G2/M / S: A549; for cell cycle arrest: lung cancer A549, dose-dependent. The procedure:
(§3) To determination of the effects of the disclosed compounds on the cell cycle, 2-3×10^5 cells were exposed to the test compounds (0-5 μM) and incubated for 48 hr prior to analysis (Table 6). Cells were trypsinized, washed with PBS and fixed in 1.5 mL 95% ethanol at 4° C. overnight, followed by incubation with RNAse and staining with propidium iodide (Sigma). The DNA content was determined by flow cytometry.

In a further assay the test system is H1299. Described as above. The settings on record: 48 hr; for G1 / G2/M / S: H1299; for cell cycle arrest: lung cancer H1299, dose-dependent. The procedure:
as §3

Consider `CNC1=CC2=NCCc3c[nH]c(c32)C1=O` [Compound 4a], for which the values for the IC50 in the assay with HCT-116, in the assay with MDA-MB-468 and in the assay with MCF-7 were 2500 ± 1300 nM, 400 ± 50 nM and 1300 ± 100 nM, respectively. The GI50 is 4130 nM with NCI-H552; 1280 nM with HOP-92; 2200 nM in the assay on EKVX; 2000 nM with UACC-257; 3830 nM in the assay on KM12; 3610 nM with PC-3. Moreover, it took 2190 nM to inhibit growth in the assay on K-562 by half (GI50).

As to `O=C1C(NCc2ccccc2)=CC2=NCCc3c[nH]c1c32` [Compound 4c], the IC50 in the assay on U87MG worked out at 2880 nM; in the assay with HCT-116, 1300 ± 200 nM; in the assay on MDA-MB-468, 300 nM; with MCF-7 it was 1000 nM. Also, the 50% growth inhibitory concentration (GI50) in the assay with NCI-H552 stood at 1690 nM; in the assay with HOP-92, 308 nM; in the assay with EKVX it was 271 nM; in the assay with UACC-257, 315 nM; in the assay with KM12 it was 2060 nM; with PC-3, 1540 nM. Also, growth with K-562 was halved (GI50) at 2360 nM. The G1 is given as 60.23 in the assay on A549 (0.1 μM); 58.62 in the assay with A549 (1 μM); 47.18 in the assay on A549 (5 μM); 55.27 in the assay with H1299 (0.1 μM); 51.18 in the assay with H1299 (1 μM); 30.46 with H1299 (2 μM). Moreover, the G2/M in the assay with A549 (0.1 μM) stood at 19.41; with A549 (1 μM) it was 19.85; in the assay with A549 (5 μM) it was 30.35; in the assay with H1299 (0.1 μM), 26.89; with H1299 (1 μM) it was 29.35; with H1299 (2 μM), 49.58. Besides, the S in the assay on A549 (0.1 μM) worked out at 20.37; in the assay on A549 (1 μM) it was 21.53; in the assay on A549 (5 μM), 22.48; in the assay with H1299 (0.1 μM), 17.84; with H1299 (1 μM), 19.47; in the assay on H1299 (2 μM) it was 19.96. Besides, the cell cycle arrest entry in the assay on A549 and with H1299 was “cell cycle arrest in the G2/M phase” in each case.

On to `O=C1C(NCCc2ccccc2)=CC2=NCCc3c[nH]c1c32` [Compound 4d], for which the IC50 with U87MG came out at 4280 nM; in the assay on HCT-116, 3900 ± 1200 nM; with MDA-MB-468, 300 nM; with MCF-7, 1700 ± 500 nM.

Turning to `O=C(O)C(F)(F)F.O=C1C(NCCc2ccc3c(c2)OCO3)=CC2=NCCc3c[nH]c1c32` [Compound 6], in the assay on U87MG (Homo sapiens, U-87 MG), the IC50 amounted to 5640 nM. In addition, the GI50 with NCI-H552 (Homo sapiens) turned out to be 2620 nM; in the assay with HOP-92 (Homo sapiens), 5450 nM; in the assay on EKVX (Homo sapiens) it was 1960 nM; with UACC-257 (Homo sapiens), 2970 nM; in the assay on KM12 (Homo sapiens), 2290 nM; in the assay with PC-3 (Homo sapiens) it was 5930 nM. The GI50 in the assay on K-562 (Homo sapiens, K562) amounted to 3430 nM. Further, the G1 with A549 (0.1 μM) is reported as 58.66; with A549 (1 μM), 58.59; in the assay on A549 (5 μM) it was 50.88; in the assay with H1299 (0.1 μM), 53.99; in the assay with H1299 (1 μM) it was 57.20; in the assay with H1299 (5 μM), 35.29. Besides, the G2/M with A549 (0.1 μM) was found to be 20.85; in the assay on A549 (1 μM) it was 20.37; with A549 (5 μM), 23.36; with H1299 (0.1 μM), 30.73; with H1299 (1 μM), 27.57; in the assay on H1299 (5 μM), 41.28. Further, the S in the assay with A549 (0.1 μM) is recorded as 20.50; with A549 (1 μM) it was 21.04; in the assay with A549 (5 μM) it was 25.76; with H1299 (0.1 μM), 15.28; in the assay with H1299 (1 μM), 15.22; in the assay on H1299 (5 μM), 23.43. The cell cycle arrest entry with A549 and in the assay on H1299 was “cell cycle arrest in the G2/M phase” in each case.

As for `COc1ccc(CCNC2=CC3=NCCc4c[nH]c(c43)C2=O)cc1OC.O=C(O)C(F)(F)F` [Compound 20], the IC50 with U87MG (Homo sapiens, U-87 MG) came out at 3040 nM. The GI50 in the assay on NCI-H552 (Homo sapiens) was 2240 nM; with HOP-92 (Homo sapiens) it was 1030 nM; in the assay on EKVX (Homo sapiens) it was 3080 nM; with UACC-257 (Homo sapiens), 3070 nM; in the assay on KM12 (Homo sapiens), 2230 nM; with PC-3 (Homo sapiens), 7620 nM. For the same compound, it took 16900 nM to inhibit growth in the assay with K-562 (Homo sapiens, K562) by half (GI50).

`O=C(O)C(F)(F)F.O=C1C(NCc2ccc(F)cc2)=CC2=NCCc3c[nH]c1c32` [Compound 28]: the IC50 in the assay with U87MG (Homo sapiens, U-87 MG) is 1710 nM. For the same compound, the GI50 in the assay with NCI-H552 (Homo sapiens) was 2000 nM; in the assay on HOP-92 (Homo sapiens), 1680 nM; in the assay with EKVX (Homo sapiens) it was 453 nM; in the assay on UACC-257 (Homo sapiens), 189 nM; in the assay with KM12 (Homo sapiens) it was 2020 nM; in the assay on PC-3 (Homo sapiens) it was 1570 nM. In the assay with K-562 (Homo sapiens, K562), this compound showed a GI50 of 1070 nM. Besides, the G1 with A549 (0.1 μM) was determined as 59.91; in the assay on A549 (1 μM) it was 57.88; in the assay on A549 (5 μM), 46.78; in the assay with H1299 (0.1 μM) it was 54.23; in the assay on H1299 (1 μM) it was 46.88; in the assay with H1299 (2 μM) it was 31.52. Also, the G2/M with A549 (0.1 μM) came to 20.22; with A549 (1 μM) it was 20.14; in the assay on A549 (5 μM), 25.07; in the assay with H1299 (0.1 μM), 25.17; with H1299 (1 μM) it was 31.82; in the assay on H1299 (2 μM), 36.36. Further, the S in the assay on A549 (0.1 μM) was determined as 19.87; with A549 (1 μM), 21.98; with A549 (5 μM) it was 28.14; in the assay with H1299 (0.1 μM), 20.60; in the assay on H1299 (1 μM), 21.31; in the assay with H1299 (2 μM), 32.11. For the same compound, the cell cycle arrest result with A549 and with H1299 was “cell cycle arrest in the S phase” each time.
